Assay results: paper PMC11264596, “Auxin-mediated regulation of susceptibility to toxic metabolites, c-di-GMP levels, and phage infection in the rhizobacterium Serratia plymuthica” (mSystems, 2024)

Biological target: T1, TrpRA153 (AWY96_RS12805) (Serratia plymuthica, UniProt A0A2X4U763)
T1 construct: gene trpR
Assay: isothermal titration calorimetry
Format: binding

SMILES	Kd [µM]
N[C@@H](Cc1c[nH]c2ccccc12)C(=O)O [L-Trp]	91 ± 3
O=C(O)Cc1c[nH]c2ccccc12 [IAA, indole-3-acetic acid]	326 ± 30
O=C(O)C(=O)Cc1c[nH]c2ccccc12 [IPA, indole-3-pyruvic acid]	101 ± 7
